Values quoted from earlier work in patent EP1750675B1, “STABLE ORAL PHARMACEUTICAL COMPOSITIONS OF BUP[…] SALT THEREOF” (Galephar M/F, priority 2004, dated 2005).
Counter-ions that a name gives are not always drawn. Like-named read-outs stand apart in the source and are kept apart here.

Assays:
[1] = opioid agonist/antagonist
[2] = 20°C

Row | SMILES | potency relative to morphine [1] | solubility ([2]; in cyclohexane) [mg/mL] | solubility ([2]; in ethanol) [mg/mL] | solubility ([2]; in glacial acetic acid) | solubility ([2]; in water) | stability (at high temperatures (up to 120°C)) | stability (in acid and alkaline conditions) | stability (in neutral solutions (pH 5-7))
1 | CO[C@]12CC[C@@]3(C[C@@H]1[C@](C)(O)C(C)(C)C)[C@H]1Cc4ccc(O)c5c4[C@@]3(CCN1CC1CC1)[C@H]2O5 [Buprenorphine] | about forty times as potent as morphine |  |  |  |  |  |  | 
2 | CO[C@]12CC[C@@]3(C[C@@H]1[C@](C)(O)C(C)(C)C)[C@H]1Cc4ccc(O)c5c4[C@@]3(CCN1CC1CC1)[C@H]2O5 [buprenorphine hydrochloride, Buprenorphine hydrochloride] |  | ~0.02 | ~42 | more than 500 mg/ml | about 20 mg/ml | stable | significant degradation | stable
